Measurements reported in US7307061B2, “β-peptoids with antimicrobial activity” (E.I. du Pont de Nemours and Company, priority 2004, dated 2007).
≈ marks a conversion by molar mass, not a printed value.

These compounds were tested on E. coli ATCC 25922. Conditions: ATCC 25922, 24 h.
Type: cell-based
Experimental: The minimal inhibitory concentration (MIC) for the peptoids was determined in sterile microtiter plates in a final volume of 200 μl using Trypticase Soy Broth (TSB; Difco Laboratories, Detroit, Mich.) as the growth medium. Serial two-fold dilutions of the peptoid stock were made in the plate wells such that concentrations ranged from 512 to 2 μg/ml in a volume of 100 μL. Each well was then inoculated with 100 μl of a dilute suspension of bacteria in TSB yielding a final concentration of 1×10^4 bacteria/ml. The final peptoid concentrations ranged from 256 μg/ml to […]. The assay plates were incubated at 37° C. for 24 hours inside a Bioscreen C microtitre plate reader (Thermo Labsystems; Vantaa, Finland). Optical Density (OD) of the medium at 600 nm was recorded every 20 minutes to monitor cell growth. The lowest concentration of peptoid preventing bacterial growth during the 24 hr period was defined as the MIC.
Table 1. Antibacterial activity of peptoids against E. coli ATCC 25922. The general structure for each of the Compounds 20 to 41 is represented by Formula V: […]

| SMILES | MIC [µg/mL] |
| --- | --- |
| CC(=O)N(CCC(=O)N(CCCN(C)C)CCC(=O)N(CCC(=O)N(CCC(=O)N(CCCN(C)C)CCC(=O)N(CCC(=O)N(CCC(=O)N(CCCN(C)C)CCC(=O)N(CCC(=O)NC(CCCCN)C(N)=O)CC(C)C)Cc1ccccc1)CC(C)C)Cc1ccccc1)CC(C)C)Cc1ccccc1 (centres unmarked) [Compound 20, Ac(Bz-DMAP-Ibu)3-Lys-NH2] | 128 (≈ 84.1 µM) |
| CC(=O)N(CCC(=O)N(CCCN(C)C)CCC(=O)N(CCC(=O)N(CCC(=O)N(CCCN(C)C)CCC(=O)N(CCC(=O)N(CCC(=O)N(CCCN(C)C)CCC(=O)N(CCC(=O)N(CCC(=O)N(CCCN(C)C)CCC(=O)N(CCC(=O)N(CCC(=O)N(CCCN(C)C)CCC(=O)N(CCC(=O)NC(CCCCN)C(N)=O)CC(C)C)Cc1ccccc1)CC(C)C)Cc1ccccc1)CC(C)C)Cc1ccccc1)CC(C)C)Cc1ccccc1)CC(C)C)Cc1ccccc1 (centres unmarked) [Compound 21, Ac(Bz-DMAP-Ibu)5-Lys-NH2] | 128 (≈ 53.1 µM) |
| CC(=O)N(CCC(=O)N(CCCN(C)C)CCC(=O)N(CCC(=O)N(CCC(=O)N(CCCN(C)C)CCC(=O)N(CCC(=O)N(CCC(=O)N(CCCN(C)C)CCC(=O)N(CCC(=O)N(CCC(=O)N(CCCN(C)C)CCC(=O)N(CCC(=O)N(CCC(=O)N(CCCN(C)C)CCC(=O)N(CCC(=O)N(CCC(=O)N(CCCN(C)C)CCC(=O)N(CCC(=O)NC(CCCCN)C(N)=O)CC(C)C)Cc1ccccc1)CC(C)C)Cc1ccccc1)CC(C)C)Cc1ccccc1)CC(C)C)Cc1ccccc1)CC(C)C)Cc1ccccc1)CC(C)C)Cc1ccccc1 (centres unmarked) [Compound 22, Ac(Bz-DMAP-Ibu)6-Lys-NH2] | 128 (≈ 44.8 µM) |
| CC(=O)N(CCC(=O)N(CCC(=O)N(CCCN(C)C)CCC(=O)N(CCC(=O)N(CCC(=O)N(CCCN(C)C)CCC(=O)N(CCC(=O)N(CCC(=O)N(CCCN(C)C)CCC(=O)NC(CCCCN)C(N)=O)CC(C)C)Cc1ccccc1)CC(C)C)Cc1ccccc1)CC(C)C)Cc1ccccc1 (centres unmarked) [Compound 23, Ac(Bz-Ibu-DMAP)3-Lys-NH2] | 512 (≈ 337 µM) |
| CC(=O)N(CCC(=O)N(CCC(=O)N(CCCN(C)C)CCC(=O)N(CCC(=O)N(CCC(=O)N(CCCN(C)C)CCC(=O)N(CCC(=O)N(CCC(=O)N(CCCN(C)C)CCC(=O)N(CCC(=O)N(CCC(=O)N(CCCN(C)C)CCC(=O)NC(CCCCN)C(N)=O)CC(C)C)Cc1ccccc1)CC(C)C)Cc1ccccc1)CC(C)C)Cc1ccccc1)CC(C)C)Cc1ccccc1 (centres unmarked) [Compound 24, Ac(Bz-Ibu-DMAP)4-Lys-NH2] | 128 (≈ 65.1 µM) |
| CC(=O)N(CCC(=O)N(CCCN(C)C)CCC(=O)N(CCC(=O)N(CCCN(C)C)CCC(=O)N(CCC(=O)N(CCCN(C)C)CCC(=O)N(CCC(=O)N(CCCN(C)C)CCC(=O)N(CCC(=O)N(CCCN(C)C)CCC(=O)NC(CCCCN)C(N)=O)CC(C)C)CC(C)C)CC(C)C)CC(C)C)CC(C)C (centres unmarked) [Compound 27, Ac(Ibu-DMAP)5-Lys-NH2] | >512 |
| CC(=O)N(CCC(=O)N(CCN)CCC(=O)N(CCC(=O)N(CCN)CCC(=O)N(CCC(=O)N(CCN)CCC(=O)N(CCC(=O)N(CCN)CCC(=O)N(CCC(=O)N(CCN)CCC(=O)NC(CCCCN)C(N)=O)CC(C)C)CC(C)C)CC(C)C)CC(C)C)CC(C)C (centres unmarked) [Compound 30, Ac(Ibu-Aminoethyl)5-Lys-NH2] | >256 |
| CC(=O)N(CCC(=O)N(CCC(=O)N(CCCCN)CCC(=O)N(CCC(=O)N(CCC(=O)N(CCCCN)CCC(=O)NC(CCCCN)C(N)=O)CC(C)C)CC(C)C)CC(C)C)CC(C)C (stereo not drawn) [Compound 37, Ac(Ibu-Ibu-Aminobutyl)2-Lys-NH2] | >512 |
| CC(=O)N(CCC(=O)N(CCCCN)CCC(=O)N(CCC(=O)N(CCCCN)CCC(=O)N(CCC(=O)N(CCCCN)CCC(=O)NC(CCCCN)C(N)=O)CC(C)C)CC(C)C)CC(C)C (centres unmarked) [Compound 41, Ac(Ibu-Aminobutyl)3-Lys-NH2] | 512 (≈ 514 µM) |

Second part, the compound after the results:

| MIC [µg/mL] | SMILES |
| --- | --- |
| 128 (≈ 53.1 µM) | CC(=O)N(CCC(=O)N(CCC(=O)N(CCCN(C)C)CCC(=O)N(CCC(=O)N(CCC(=O)N(CCCN(C)C)CCC(=O)N(CCC(=O)N(CCC(=O)N(CCCN(C)C)CCC(=O)N(CCC(=O)N(CCC(=O)N(CCCN(C)C)CCC(=O)N(CCC(=O)N(CCC(=O)N(CCCN(C)C)CCC(=O)NC(CCCCN)C(N)=O)CC(C)C)Cc1ccccc1)CC(C)C)Cc1ccccc1)CC(C)C)Cc1ccccc1)CC(C)C)Cc1ccccc1)CC(C)C)Cc1ccccc1 (centres unmarked) [Compound 25, Ac(Bz-Ibu-DMAP)5-Lys-NH2] |
| 128 (≈ 78.3 µM) | CC(=O)N(CCC(=O)N(CCN)CCC(=O)N(CCC(=O)N(CCN)CCC(=O)N(CCC(=O)N(CCN)CCC(=O)N(CCC(=O)N(CCN)CCC(=O)N(CCC(=O)N(CCN)CCC(=O)N(CCC(=O)N(CCN)CCC(=O)NC(CCCCN)C(N)=O)CC(C)C)CC(C)C)CC(C)C)CC(C)C)CC(C)C)CC(C)C (centres unmarked) [Compound 26, Ac(Ibu-Aminoethyl)6-Lys-NH2] |
| >512 | CC(=O)N(CCC(=O)N(CCCN(C)C)CCC(=O)N(CCC(=O)N(CCCN(C)C)CCC(=O)N(CCC(=O)N(CCCN(C)C)CCC(=O)N(CCC(=O)N(CCCN(C)C)CCC(=O)N(CCC(=O)N(CCCN(C)C)CCC(=O)N(CCC(=O)N(CCCN(C)C)CCC(=O)N(CCC(=O)N(CCCN(C)C)CCC(=O)N(CCC(=O)N(CCCN(C)C)CCC(=O)NC(CCCCN)C(N)=O)CC(C)C)CC(C)C)CC(C)C)CC(C)C)CC(C)C)CC(C)C)CC(C)C)CC(C)C (centres unmarked) [Compound 29, Ac(Ibu-DMAP)8-Lys-NH2] |
| 256 (≈ 121 µM) | CC(=O)N(CCC(=O)N(CCN)CCC(=O)N(CCC(=O)N(CCN)CCC(=O)N(CCC(=O)N(CCN)CCC(=O)N(CCC(=O)N(CCN)CCC(=O)N(CCC(=O)N(CCN)CCC(=O)N(CCC(=O)N(CCN)CCC(=O)N(CCC(=O)N(CCN)CCC(=O)N(CCC(=O)N(CCN)CCC(=O)NC(CCCCN)C(N)=O)CC(C)C)CC(C)C)CC(C)C)CC(C)C)CC(C)C)CC(C)C)CC(C)C)CC(C)C (centres unmarked) [Compound 32, Ac(Ibu-Aminoethyl)8-Lys-NH2] |
| >512 | CC(=O)N(CCC(=O)N(CCC(=O)N(CCN)CCC(=O)N(CCC(=O)N(CCC(=O)N(CCN)CCC(=O)N(CCC(=O)N(CCC(=O)N(CCN)CCC(=O)NC(CCCCN)C(N)=O)CC(C)C)CC(C)C)CC(C)C)CC(C)C)CC(C)C)CC(C)C (stereo not drawn) [Compound 33, Ac(Ibu-Ibu-Aminoethyl)3-Lys-NH2] |
| 256 (≈ 154 µM) | CC(=O)N(CCC(=O)N(CCC(=O)N(CCN)CCC(=O)N(CCC(=O)N(CCC(=O)N(CCN)CCC(=O)N(CCC(=O)N(CCC(=O)N(CCN)CCC(=O)N(CCC(=O)N(CCC(=O)N(CCN)CCC(=O)NC(CCCCN)C(N)=O)CC(C)C)CC(C)C)CC(C)C)CC(C)C)CC(C)C)CC(C)C)CC(C)C)CC(C)C (stereo not drawn) [Compound 34, Ac(Ibu-Ibu-Aminoethyl)4-Lys-NH2] |
| 256 (≈ 126 µM) | CC(=O)N(CCC(=O)N(CCC(=O)N(CCN)CCC(=O)N(CCC(=O)N(CCC(=O)N(CCN)CCC(=O)N(CCC(=O)N(CCC(=O)N(CCN)CCC(=O)N(CCC(=O)N(CCC(=O)N(CCN)CCC(=O)N(CCC(=O)N(CCC(=O)N(CCN)CCC(=O)NC(CCCCN)C(N)=O)CC(C)C)CC(C)C)CC(C)C)CC(C)C)CC(C)C)CC(C)C)CC(C)C)CC(C)C)CC(C)C)CC(C)C (stereo not drawn) [Compound 36, Ac(Ibu-Ibu-Aminoethyl)5-Lys-NH2] |
| >512 | CC(=O)N(CCC(=O)N(CCC(=O)N(CCCCN)CCC(=O)N(CCC(=O)N(CCC(=O)N(CCCCN)CCC(=O)N(CCC(=O)N(CCC(=O)N(CCCCN)CCC(=O)NC(CCCCN)C(N)=O)CC(C)C)CC(C)C)CC(C)C)CC(C)C)CC(C)C)CC(C)C (stereo not drawn) [Compound 38, Ac(Ibu-Ibu-Aminobutyl)3-Lys-NH2] |
